Test results reported in US6841236B2, “Articles containing thioxanthone dyes” (3M Innovative Properties Co., priority 2001, dated 2005).

Tests used:
[1] = Daytime color of polyurethane film with dye laminated to retroreflective sheeting; type: physicochemical; conditions: dye 0.2 wt.-% in aliphatic polyester polyurethane PN03.214, 0.1 mm film on Scotchlite 3970
Procedure: (§1) The daytime color of each article was measured using a Labsphere BFC-450 Bispectral Colorimeter commercially available from Labsphere, North Sutton, N.H. The daytime chromaticity (x,y), total luminance factor (YT), and fluorescence luminance factor (YF; which is a measure of the fluorescent properties of the article) calculated for the CIE D65 and the CIE 1931 observer are provided in TABLE II
Examples 24-27 were prepared as described in Examples 8-10, except that the dyes of Examples 1, 3, 6-(2-hydroxy-ethoxy)-14H-anthra(2,1,9-mna)thioxanthene-14-one (described by Carlini et al.) and 6-methoxy-14H-anthra(2,1,9-mna)thioxanthene-14-one were independently used at 0.2 wt.-% loading in an aliphatic polyester polyurethane resin commercially available from Huntsman Polyurethanes, West Deptford, N.J., USA under the trade designation “PN03.214”. The extrusion conditions for the polyurethane were 154-191° C. and the resultant film thickness was 0.1 mm.
The resultant films were laminated to Scotchlite 3970 reflective sheeting on aluminum panels as described in Examples 8-10. Color values were measured as described in Examples 8-10 and the results set out in TABLE VII.

[2] = Daytime color and visual inspection of PMMA film with dye laminated to retroreflective sheeting; type: physicochemical; conditions: for visual inspection of film for undissolved dye: extruded PMMA CP923 film 0.1 mm, 6-methoxy dye at 1 wt.-%, dyes of Examples 1-2 at up to 1.27 wt-%
Procedure: as §1
Examples 11-16 were prepared with the compounds of Examples 1-2 and 6-methoxy-14H-anthra(2,1,9-mna)thioxanthene-14-one in polymethylmethacrylate (PMMA) resin at the wt.-% of dye shown in TABLE III. The samples were prepared by dry blending the dye with a medium impact modified grade PMMA resin commercially available from Ineos Acrylics Inc., Cordova, Tenn. under the trade designation “CP923”. Films of 0.1 mm thickness were extruded through a single screw extruder with three heating zones set at 249° C. to 260° C. […] Examples 11 and 12 and Examples 13 and 14 had equal molar loadings of dye.
The resultant films were laminated to Scotchlite 3970 reflective sheeting on aluminum panels as described in Examples 8-10. Color values were measured as described in Examples 8-10 and the results set out in TABLE III.

[3] = Daytime color of polycarbonate sheet with dye laminated to retroreflective sheeting (Labsphere BFC-450 Bispectral Colorimeter); type: physicochemical; conditions: 0.2% dye in polycarbonate FCR-2407, 0.1 mm sheet on Scotchlite 3970; CIE D65, CIE 1931 observer
Procedure: Examples 8-10 were prepared with the compounds of Examples 1 and 2 and 6-methoxy-14H-anthra(2,1,9-mna)thioxanthene-14-one at a 0.2% loading in polycarbonate FCR-2407. Extrusion conditions for the polycarbonate were 260-304° C. using a single screw extruder. Optically transparent pressure sensitive adhesive with a liner on both sides of the adhesive was laminated to the 0.1 mm thick sheet of polycarbonate by removing one of the liners from the adhesive and then applying the exposed adhesive to the polycarbonate sheet with two passes of a roller using hand pressure.
The remaining liner was removed from the adhesive and the polycarbonate sheet construction was laminated to retroreflective sheeting commercially available from 3M under the trade designation “Scotchlite Diamond Grade LDP Reflective Sheeting Series 3970” (Scotchlite 3970) with two passes of a roller using hand pressure. The Scotchlite 3970 reflective sheeting had previously been laminated to a 7 cm wide by 28 cm long aluminum panel (6061T6 alloy with etch and desmut surface from Q Panel Company, Cleveland, Ohio) with two passes of a roller with hand pressure.
as §1

[4] = Dye concentration in saturated acetone solution at room temperature; type: physicochemical; conditions: 72 hours at RT, 0.45 micron PTFE filtered, absorbance at 535 nm
Procedure: Examples 4-7 were prepared by placing 60-100 mg of each of the compounds of Examples 1-3 and 6-methoxy-14H-anthra(2,1,9-mna)thioxanthene-14-one (described by Carlini et al.) in a vial with 5.0 ml acetone. […] Each vial was hand shaken and the solution was filtered using a 0.45 micron polytetrafluoroethylene (PTFE) filter commercially available from VWR Scientific Products, West Chester, Pa. under the trade designation “Acrodisc 13CR PTFE”.
The amount of fluorescent dye in the saturated acetone solution was determined by measuring the major dye absorption band at 535 nm using a UV-Vis Spectrophotometer commercially available from Shimadzu Scientific Instruments, Inc., Columbia, Md. under the trade designation “Shimadzu model UV-2401PC”. Dye concentrations were calculated by measuring the absorbance of the saturated acetone solution, and then diluting that solution until absorbance of the resulting solution was below 3. The dyes were assumed to have equal absorbance per mole. Using the dilution and an absorbance coefficient of 16,100 A/mol/L (coefficient obtained in acetone for the dye of Example 3) and assuming a Beer's Law relationship, the concentration of dye in each saturated solution was calculated and is set out in TABLE I

[5] = Daytime color of Paraloid B66 dye coating on retroreflective sheeting; type: physicochemical; conditions: for YF (fluorescence luminance factor) / YT (total luminance factor) / x (daytime chromaticity) / y (daytime chromaticity): 0.10 parts dye in 64.8 parts Dowanol DPMA and 38.2 parts Paraloid B66, coated on Scotchlite 3970 with #16 wire wound bar, dried
Procedure: as §1
Examples 19-21 were prepared by independently stirring 0.10 parts of the dyes of Examples 1 and 3 and 6-methoxy-14H-anthra(2,1,9-mna)thioxanthene-14-one in a clear vehicle solution of 64.8 parts Dowanol DPMA and 38.2 parts Paraloid B66.
The fluorescent dye solutions were coated on Scotchlite 3970 reflective sheeting using a #16 wire wound bar. The coating was air dried for 5 minutes and then dried in a 120° C. oven for 45 minutes. Color values were measured as described in Examples 8-10 and the results set out in TABLE V.

[6] = Daytime color of copolyester film with dye laminated to retroreflective sheeting; type: physicochemical; conditions: dye 0.2 wt.-% in copolyester resin, 0.1 mm film on Scotchlite 3970
Procedure: as §1
Examples 17-18 were prepared as described in Examples 8-10, except that the dyes of Examples 1 and 2 at a 0.2 wt.-% loading were independently incorporated into a copolyester resin. The copolyester resin was prepared using terephthalic and isophthalic acid in an 80/20 ratio and ethylene glycol in the conventional manner and analogous to the production of polyethylene terephthalate according to the method described in Macromolecular Syntheses, A Periodic Publication of Methods for the Preparation of Macromolecules, Collective Volume I, 1977, J. A. Moore, Editor, (John Wiley & Sons, New York; 1978);p. 17-21. The extrusion conditions for the copolyester were 254-260° C. using a single screw extruder and the resultant film thickness was 0.1 mm.
The resultant films were laminated to Scotchlite 3970 reflective sheeting on aluminum panels as described in Examples 8-10. Color values were measured as described in Examples 8-10 and the results set out in TABLE IV.

[7] = Daytime color of vinyl film with dye laminated to retroreflective sheeting; type: physicochemical; conditions: 0.18 g dye in 65 g GEON 178 / Elvacite 2013 mixture, 0.04 mm vinyl film on Scotchlite 3970
Procedure: as §1
Examples 22-23 were prepared by independently stirring 0.18 g of the dye of Examples 1 and 3 into 65 g of a mixture composed of 42 wt.-% DIBK, xylol, and mineral spirit (1.7:2.3:1), 44 wt.-% of a polyvinyl chloride dispersion commercially available from PolyOne, Cleveland, Ohio under the trade designation “GEON 178” and 14 wt.-% of a polyacrylate commercially available from Ineos Acrylics Inc., Cordova, Tenn. under the trade designation “Elvacite 2013”. Each mixture was allowed to stand at room temperature for one hour prior to knife coating onto a pre-sized paper substrate. Each coated substrate was placed in a 150° F. (66° C.) oven for 1.5 minutes, followed by a 300° F. (149° C.) oven for 1.0 minute and a 400° F. (204° C.) oven for 0.75 minute, resulting in a 0.04 mm thick fluorescent colored vinyl film.
The resultant films were laminated to Scotchlite 3970 reflective sheeting on aluminum panels as described in Examples 8-10. Color values were measured as described in Examples 8-10 and the results set out in TABLE VI.

[8] = dye 0.3 wt-% in PMMA CP923, 0.1 mm film on Scotchlite 3970
[9] = dye 1.0 wt-% in PMMA CP923, 0.1 mm film on Scotchlite 3970
[10] = dye 0.2 wt-% in PMMA CP923, 0.1 mm film on Scotchlite 3970

SMILES	X (daytime chromaticity) [1]	YF (fluorescence luminance factor) [1]	YT (total luminance factor) [1]	y (daytime chromaticity) [1]	visual inspection of film for undissolved dye [2]	YF (fluorescence luminance factor) [3]	YT (total luminance factor) [3]	x (daytime chromaticity) [3]	y (daytime chromaticity) [3]	Dye Concentration in Acetone at RT [4] [mg/mL]	YF (fluorescence luminance factor) [5]	YT (total luminance factor) [5]	x (daytime chromaticity) [5]	y (daytime chromaticity) [5]	also measured
O=c1c2ccccc2c2cc(OCCO)c3sc4ccccc4c4ccc1c2c34 [6-(2-hydroxy-ethoxy)-14H-anthra(2,1,9-mna)thioxanthene-14-one, reference compound]	0.6000	10.09	14.71	0.2756											
COc1cc2c3ccccc3c(=O)c3ccc4c5ccccc5sc1c4c32 [6-methoxy-14H-anthra(2,1,9-mna)thioxanthene-14-one, reference compound]	0.5989	9.69	14.81	0.2780	particles of dye in the film	16.15	28.24	0.6163	0.3025	0.06	1.12	17.05	0.3977	0.3225	X (daytime chromaticity) [2, 8]: 0.6072; YF (fluorescence luminance factor) [2, 8]: 11.64; YT (total luminance factor) [2, 8]: 17.02; y (daytime chromaticity) [2, 8]: 0.3117; X (daytime chromaticity) [2, 9]: 0.5723; YF (fluorescence luminance factor) [2, 9]: 3.67; YT (total luminance factor) [2, 9]: 5.28; y (daytime chromaticity) [2, 9]: 0.3064
CCCCC(CC)COc1cc2c3ccccc3c(=O)c3ccc4c5ccccc5sc1c4c32 (stereo not shown) [Example 2, 6-[(2-Ethylhexyl)oxy]-14H-anthra[2,1,9-mna]thioxanthene-14-one]					uniform appearance with no undissolved dye seen	16.6	32.05	0.5336	0.2979	0.96					melting point: 175 to 177 °C; X (daytime chromaticity) [2, 10]: 0.6064; YF (fluorescence luminance factor) [2, 10]: 14.69; YT (total luminance factor) [2, 10]: 31.13; y (daytime chromaticity) [2, 10]: 0.3113; YF (fluorescence luminance factor) [6]: 12.77; YT (total luminance factor) [6]: 19.91; x (daytime chromaticity) [6]: 0.5627; y (daytime chromaticity) [6]: 0.2785
CC(C)CC(CC(C)C)Oc1cc2c3ccccc3c(=O)c3ccc4c5ccccc5sc1c4c32 [Example 3, 6-(1-Isobutyl-3-methylbutoxy)-14H-anthra[2,1,9-mna]thioxanthene-14-one]	0.5970	11.62	17.66	0.2886						2.98	17.05	33.17	0.4971	0.3113	Y (daytime chromaticity) [7]: 0.2609; YF (fluorescence luminance factor) [7]: 12.92; YT (total luminance factor) [7]: 24.21; x (daytime chromaticity) [7]: 0.4952; appearance of coated article ([5]; dye in Paraloid B66 coating on Scotchlite 3970): bright fluorescent pink appearance
